According to PubChem BioAssay (NCI):
Values joined by “and” are separate entries in the source; they are usually repeats but may differ in a detail not shown here. Identical values can stand only once.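 Method: 48-hour compound exposure of cells in 96-well plates, five concentrations, linear interpolation of endpoints. GI50 marks 50% less growth. TGI denotes the concentration required for complete inhibition of growth.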

Legend:
Experiment in all cases: NCI tumour cell line growth inhibition, 48 h
A549 NSCLC = test system: A549 NSCLC
CAKI-1 renal = test system: CAKI-1 renal
DU-145 prostate = test system: DU-145 prostate
KM12 colon = test system: KM12 colon
OVCAR-3 ovarian = test system: OVCAR-3 ovarian
OVCAR-4 ovarian = test system: OVCAR-4 ovarian
RXF 393 renal = test system: RXF 393 renal
SK-MEL-2 melanoma = test system: SK-MEL-2 melanoma
SK-MEL-28 melanoma = test system: SK-MEL-28 melanoma
U251 CNS = test system: U251 CNS

SMILES | TGI (A549 NSCLC) [µM] | TGI (CAKI-1 renal) [µM] | TGI (DU-145 prostate) [µM] | TGI (KM12 colon) [µM] | TGI (OVCAR-3 ovarian) [µM] | TGI (OVCAR-4 ovarian) [µM] | TGI (RXF 393 renal) | TGI (SK-MEL-2 melanoma) | TGI (SK-MEL-28 melanoma) [µM] | TGI (U251 CNS) [µM] | GI50 (RXF 393 renal) | GI50 (SK-MEL-2 melanoma) | GI50 (U251 CNS)
N=C(N)SCc1nc(-c2ccc(Cl)cc2)no1 | > 100 | 27.4 | 63 | > 100 | 26.2 | 29.1 | 25 µM | 41.7 µM | 33 | 78.8 | – | – | –
O=C(CCCCCNC(=O)c1ccc(Cl)cc1)NO | 81.9 | 21.1 | > 100 | > 100 | 13 | > 100 | 19.8 µM | 7.22 µM | > 100 | 24 | – | – | –
O=C(O)C(Cc1ccccc1)Cc1ccccc1 | > 100 | > 100 | > 100 | > 100 | > 100 | > 100 | > 100 µM | > 100 µM | > 100 | > 100 | – | – | –
CCCCCCCCCCCC(=O)N(CCCCCCCCC)CC(O)C(O)C(OC1OC(CO)C(O)C(O)C1O)C(O)CO (stereo not drawn) | 43.5 | 35.5 | 33.8 | 31.2 | 40.3 | 49.6 | 50 µM | 43.9 µM | 35.2 | 35.5 | – | – | –
C1=CC2C(C3CN(c4ccccc4)N=C13)C1C3C4C=CC21C=CC43 (stereo not drawn) | > 100 | > 100 | > 100 | > 100 | > 100 | > 100 | > 100 µM | > 100 µM | > 100 | > 100 | – | – | –
CCOc1ccccc1N=NC1C(=O)N(C(=O)CC(=O)Nc2ccccc2C)N=C1C (stereo not drawn) | > 100 | > 100 | > 100 | > 100 | > 100 | > 100 | 89.4 µM | > 100 µM | > 100 | 49.1 | – | – | –
CCOC(=O)c1ccc2nc3n(c2c1)C(c1c(F)cccc1F)SC3 (stereo not drawn) | > 100 | > 100 | > 100 | > 100 | > 100 | > 100 | > 100 µM | > 100 µM | > 100 | > 100 | – | – | –
CC1(C)CCCCCC(O)C(O)CCC(C)(C)C1=O (stereo not drawn) | > 100 | > 100 | > 100 | > 100 | > 100 | > 100 | > 100 µM | > 100 µM | > 100 | > 100 | – | – | –
N#Cc1ccc(-c2ccc(Cl)cc2)n(C2OC(CO)C(O)C(O)C2O)c1=S (stereo not drawn) | > 100 | > 100 | > 100 | > 100 | > 100 | > 100 | > 100 µM and 51 µM | > 100 µM and 52.5 µM | > 100 | > 100 | > 100 µM and 18.7 µM | > 100 µM and 10.6 µM | > 100 µM and 20 µM
C=C1c2c(n(S(=O)(=O)c3ccccc3)c3ccccc23)[C@@]2(C(=O)OC)CC3C=CC2N1C3 | > 100 | > 100 | > 100 | > 100 | > 100 | > 100 | > 100 µM | > 100 µM | > 100 | > 100 | – | – | –
NC(=Nc1ccccc1)N/N=C/c1c[nH]c2ccccc12 | 15.4 | 22.9 | 2.59 | 5.28 | 0.314 | 15 | 0.701 µM | 4.95 µM | 8.77 | 2.61 | – | – | –
CSc1nnnc2ccccc12 | > 100 | > 100 | > 100 | > 100 | > 100 | > 100 | > 100 µM | > 100 µM | > 100 | > 100 | – | – | –
CCOP(=O)(OCC)C(Nc1ccc(Cl)cc1)c1ccc(F)cc1 (stereo not drawn) | > 100 | 83.6 | 91.4 | > 100 | > 100 | > 100 | 67.3 µM | 35.8 µM | 41.7 | 41.3 | – | – | –
CC1(C)C2CC3C(C)(C2)C31c1cc(Cl)ccc1N (stereo not drawn) | 24.2 | 29.1 | 27 | 28.5 | 31.2 | 28.6 | 22.9 µM | 29.4 µM | 31.3 | 28.5 | – | – | –
Cc1cn(C2CC(O)C(Cn3nncc3Cn3nc(Br)c(=O)[nH]c3=O)O2)c(=O)[nH]c1=O (stereo not drawn) | > 100 | > 100 | > 100 | > 100 | > 100 | > 100 | > 100 µM | > 100 µM | > 100 | > 100 | – | – | –
CCSC12OC3(CCCCCN3C1=O)C1C(=O)N(c3ccccc3)C(=O)C12 (stereo not drawn) | > 100 | > 100 | > 100 | > 100 | > 100 | > 100 | > 100 µM | > 100 µM | > 100 | > 100 | – | – | –
CCOc1ccc2c(c1)C(/C(C(Cl)=C(Cl)Cl)=[N+](/[O-])OC(=O)c1ccccc1)=N2 | > 100 | > 100 | > 100 | > 100 | > 100 | > 100 | > 100 µM | > 100 µM | > 100 | > 100 | – | – | –

SMILES | TGI (A549 NSCLC) [µM] | TGI (CAKI-1 renal) [µM] | TGI (DU-145 prostate) [µM] | TGI (KM12 colon) [µM] | TGI (OVCAR-3 ovarian) [µM] | TGI (OVCAR-4 ovarian) [µM] | TGI (RXF 393 renal) | TGI (SK-MEL-2 melanoma) | TGI (SK-MEL-28 melanoma) [µM] | TGI (U251 CNS) [µM] | GI50 (RXF 393 renal) | GI50 (SK-MEL-2 melanoma) | GI50 (U251 CNS)
O=S(=O)(O)c1ccc(O)c(N=Nc2c(O)ccc3ccccc23)c1 | > 100 | > 100 | > 100 | > 100 | > 100 | > 100 | > 100 µM | > 100 µM | > 100 | > 100 | – | – | –
NC1(c2cc3ccccc3s2)CCCCCC1 | 34.2 | 26.8 | 30.9 | 30.5 | 29.2 | 27.7 | 25.4 µM | 22.1 µM | 30.9 | 29.1 | – | – | –
O=c1oc2ccccc2c(O)c1C(c1ccc(OCc2ccccc2)cc1)c1c(O)c2ccccc2oc1=O | > 100 | 81.2 | > 100 | > 100 | > 100 | > 100 | > 100 µM | > 100 µM | > 100 | > 100 | – | – | –
N#Cc1c(/C=C/c2ccccc2)c2c([nH]c1=S)CCCCC2 | > 100 | > 100 | > 100 | > 100 | > 100 | > 100 | > 100 µM | > 100 µM | > 100 | > 100 | – | – | –
CCC[N+](C)(C)CCCNC(=O)c1c(O)c2ccccc2[nH]c1=O | > 100 | > 100 | > 100 | > 100 | > 100 | > 100 | > 100 µM | > 100 µM | > 100 | > 100 | – | – | –
N=C1C=CC(=C(c2ccc(N)cc2)c2ccc(N)cc2)C=C1 | 32.1 | 58.1 | 17.7 | 13.7 | 25.2 | 52.4 | 23 µM | 10.4 µM | 26.1 | 22.6 | – | – | –
N#CCCN(CCCCN(CCC#N)C(=O)Nc1ccccc1)C(=O)Nc1ccccc1 | > 100 | > 100 | > 100 | > 100 | > 100 | > 100 | > 100 µM | > 100 µM | > 100 | > 100 | – | – | –
C[Si](C)(C)OC1(C#N)c2ccccc2CCCC12CCCC2 (stereo not drawn) | > 100 | > 100 | > 100 | > 100 | > 100 | > 100 | 88.1 µM | 45.7 µM | > 100 | 92.2 | – | – | –
C=CC(=O)N1C/C(=C\c2ccc(OC)cc2)C(=O)/C(=C/c2ccc(OC)cc2)C1 | 8.16 | 11.7 | 23.1 | 5.22 | 5.67 | 13.4 | 3.23 µM | 8.57 µM | 10.8 | 6.43 | – | – | –
COc1ccc(C2N(c3ccc(C)c(N=C=O)c3)C(=O)N3C(c4ccc(OC)cc4)N(c4ccc(C)c(N=C=O)c4)C(=O)N23)cc1 (stereo not drawn) | > 100 | > 100 | > 100 | > 100 | > 100 | > 100 | > 100 µM | > 100 µM | > 100 | > 100 | – | – | –
COC(=O)NC(Cc1ccccc1)NC(=O)OC(C)(C)C (stereo not drawn) | > 100 | > 100 | > 100 | > 100 | > 100 | > 100 | > 100 µM | > 100 µM | > 100 | > 100 | – | – | –
CC1(C)CC(=O)c2c(N)n[nH]c2C1 | > 100 | > 100 | > 100 | > 100 | > 100 | > 100 | > 100 µM | > 100 µM | > 100 | > 100 | – | – | –
OC(CCN1CCN(CCOC(c2ccccc2)c2ccccc2)CC1)c1ccccc1 (stereo not drawn) | > 100 | > 100 | > 100 | 51.1 | 81.1 | > 100 | 48.6 µM | 31.6 µM | 34.4 | 36 | – | – | –
CCOC(=O)c1sc2nc(SC)nc3c2c1NCN3C | > 100 | > 100 | > 100 | > 100 | > 100 | > 100 | 32.8 µM | > 100 µM | > 100 | 46.9 | – | – | –
CN(C)C(=O)N1N[C@H](c2ccccc2)[C@@H]1c1ccccc1 | > 100 | > 100 | > 100 | > 100 | > 100 | > 100 | > 100 µM | > 100 µM | > 100 | > 100 | – | – | –
Clc1nc2nc(N3CCNCC3)nc(N3CCCC3)c2[nH]1 | 33.1 | > 100 | 30.9 | 35.9 | 33.9 | 35 | 27.9 µM | 35.4 µM | 39.6 | 31.8 | – | – | –
O=C(CSc1nc2ccc(I)cc2c(=O)n1Cc1ccccc1)Nc1ccccc1 | > 100 | > 100 | > 100 | > 100 | 40.4 | > 100 | 34.1 µM | 43.3 µM | > 100 | 48.8 | – | – | –
